In PubChem BioAssay AID624129 (Sanford-Burnham Center for Chemical Genomics, 2012):
The source made the active and inactive calls. How the calls were made is not given here.

Molecular target: C-X-C chemokine receptor type 6 (Homo sapiens) (UniProt O00574)
Experiment: potency against CXCR6 with APJ panel – cell-based, beta-arrestin, DiscoveRx, uHTS hits, dose response (AID 624129)
Conditions: CXCR6 beta-arrestin (DiscoveRx) antagonist cell assay; for outcome: CXCR6, dose range 1; for inhibition: CXCR6, run 2, dose range 1, at 79 µM (top of the series)
[1] = CXCR6, dose range 1, mean IC50 across replicates

C-X-C chemokine receptor type 6 (Homo sapiens), sequence (O00574 whole entry, looked up): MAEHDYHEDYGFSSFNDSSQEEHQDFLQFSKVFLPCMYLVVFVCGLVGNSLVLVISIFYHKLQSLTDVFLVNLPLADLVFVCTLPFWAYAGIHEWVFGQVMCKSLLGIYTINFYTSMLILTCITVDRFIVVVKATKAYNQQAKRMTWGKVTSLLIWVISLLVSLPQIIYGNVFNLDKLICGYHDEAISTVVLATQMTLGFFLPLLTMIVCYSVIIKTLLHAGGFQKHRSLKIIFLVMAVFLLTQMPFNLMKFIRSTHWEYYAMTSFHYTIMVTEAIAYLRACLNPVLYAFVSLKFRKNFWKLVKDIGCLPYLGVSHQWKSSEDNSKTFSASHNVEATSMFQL

Structure (SMILES)	outcome	IC50 [1]	IC50 (CXCR6, run 1, dose range 2)	inhibition	IC50 (CXCR6, run 2, dose range 2)
CCOC(=O)c1c(-c2ccc(C)o2)csc1NC(=S)NC(=O)N(C)C	inactive	13.6 µM	9.19 µM	99.3%	18 µM
N=C1SCC(=O)N1c1ncc(Cc2ccccc2Cl)s1	inactive	12 µM	10.5 µM	78.1%	13.5 µM
CC(=O)OC1CCC2(C)C(CCC3C4CC=C(C(C)=O)C4(C)OC(=O)CC32)C1 (stereo not given)	inactive	24.2 µM	22.6 µM	96.2%	25.7 µM
CCC(C)c1ccc(O)c(NC(=S)NC(=O)c2cccs2)c1 (stereo not given)	inactive	11.8 µM	15.4 µM	82.8%	8.27 µM
CC[N+]1(C)CCC(O)(/C=C/c2ccccc2)C(C(=O)/C=C/c2ccccc2)C1 (stereo not given)	inactive	18.2 µM	17.8 µM	112%	18.7 µM
O=C1C=CC(=O)N1CCCCCCCCCCN1C(=O)C=CC1=O	inactive	16.5 µM	15.1 µM	111%	18 µM
COc1ccc(-c2c(C(=O)c3ccccc3)[nH]c(N)c2C(=O)c2ccc(Br)cc2)cc1OC	inactive	17.4 µM	16.4 µM	86.6%	18.4 µM
COc1cc(/C=C/c2ccc3cccc(OC)c3n2)c(OC(C)=O)c([N+](=O)[O-])c1	inactive	28.4 µM	35 µM	78.8%	21.8 µM
O=C(C#Cc1ccccc1)c1ccccc1	inactive	11.3 µM	10.9 µM	113%	11.6 µM
COc1cc(/C=C(\C#N)c2nc(-c3cc4ccccc4oc3=O)cs2)ccc1O	inactive	30.7 µM	23.3 µM	84.1%	38.2 µM
COC(=O)C1=C(C(=O)OC)SC2(S1)C(C(=O)OC)=C(C(=O)OC)Sc1c2ssc1=O	inactive	23.2 µM	20.3 µM	112%	26 µM
COc1ccc(-c2nn(C)c(=O)c3ccccc23)cc1NC(=O)Cn1nc(C)c2ccccc2c1=O	inactive	34.5 µM	21.8 µM	72.1%	47.2 µM
CCCOc1ccc(CN(CCC#N)C(=S)NC(=O)c2ccccc2)cc1	inactive	20 µM	10.4 µM	68.9%	29.6 µM
CN(C)CCCN(C(=O)CCS(=O)(=O)c1ccccc1)c1nc2cc3c(cc2s1)OCO3	inactive	14.9 µM	14.3 µM	110%	15.5 µM
CCC(=O)OCCNc1cc(SCCC(=O)OC)c2nonc2c1[N+](=O)[O-]	inactive	22.5 µM	21.5 µM	108%	23.5 µM
CCCC(=O)OCCNc1cc(SCc2ccco2)c2nonc2c1[N+](=O)[O-]	inactive	12.2 µM	11.3 µM	103%	13.1 µM
COC(=O)/C=C\C(=O)Nc1cccc([N+](=O)[O-])c1	inactive	16.6 µM	18 µM	111%	15.2 µM
COc1cc(/C=C/C(=O)c2ccc(C)c([N+](=O)[O-])c2)cc(OC)c1O	inactive	19.4 µM	16.4 µM	75.1%	22.5 µM
O=C(NC(=S)Nc1ccccc1O)c1cccnc1	inactive	30.3 µM	30.3 µM	58.4%	> 79 µM
Cc1cc(O)c(-c2cc(O)c(C)cc2O)cc1O	inactive	14 µM	13.6 µM	114%	14.4 µM
CCOC(=O)c1ccc(NC(=O)c2nc(S(=O)(=O)Cc3ccccc3)ncc2Cl)cc1	inactive	12.9 µM	12.3 µM	111%	13.5 µM
CC(=NO)C1CCC2C3CCC4=CC(=NO)CCC4(C)C3C(O)CC12C (stereo not given)	inactive	28.9 µM	12.5 µM	75.2%	45.4 µM
Cc1nnc(Sc2cc(NCCO)c([N+](=O)[O-])c3nonc23)s1	inactive	12.1 µM	9.44 µM	114%	14.7 µM
C/C(=N\Nc1nc2ccccc2[nH]1)c1ccccn1	active	3.33 µM	3.33 µM	-12.1%	> 79 µM

Structure (SMILES)	outcome	IC50 [1]	IC50 (CXCR6, run 1, dose range 2)	inhibition	IC50 (CXCR6, run 2, dose range 2)
O=C(NNc1ccc([N+](=O)[O-])cc1[N+](=O)[O-])c1ccco1	inactive	30.2 µM	30.4 µM	86.8%	29.9 µM
Cc1ccc(OCC(=O)NNC(=S)NC(=O)C2CC2)c(C)c1	inactive	14.2 µM	10.3 µM	72.3%	18.1 µM
COc1cccc(/C=C2/CCC(CN(C)C)C2=O)c1 (stereo not given)	inactive	19.4 µM	20.6 µM	111%	18.2 µM
CCc1nc2c(OCCC3CCCCC3)cccn2c1N(C)C(=O)c1ccc(C)cc1	inactive	18.8 µM	17.9 µM	111%	19.6 µM
CCOC(=O)C1=C(C)NC2=C(C(=O)CC(c3cccs3)C2)C1c1cccs1 (stereo not given)	inactive	24 µM	26.3 µM	70.4%	21.6 µM
COC(=O)c1ccccc1-c1c2ccc(=N)cc-2oc2cc(N)ccc12	inactive	17.8 µM	17.1 µM	88.3%	18.6 µM
Cn1cnc([N+](=O)[O-])c1S(=O)(=O)Oc1ccccc1	inactive	19.4 µM	16.5 µM	111%	22.3 µM
Cc1cccc(CS(=O)(=O)c2ncc(Cl)c(C(=O)NCc3ccc4c(c3)OCO4)n2)c1	inactive	16.9 µM	15.7 µM	109%	18 µM
O=C(NCc1ccc2c(c1)OCO2)c1nc(S(=O)(=O)Cc2ccccc2F)ncc1Cl	inactive	16.3 µM	15.6 µM	111%	17 µM
Cc1ccc(-n2c(SCCN)nnc2-c2cccc(C)c2)cc1	inactive	66.9 µM	66.8 µM	76.2%	67 µM
CC1(C)CC[C@]2(C(=O)n3ccnc3)CC[C@]3(C)[C@H](C(=O)C=C4[C@@]5(C)C=C(C#N)C(=O)C(C)(C)[C@@H]5CC[C@]43C)[C@@H]2C1	inactive	16.4 µM	14.4 µM	105%	18.4 µM
O=[N+]([O-])c1cc(-c2ncccn2)c([N+](=O)[O-])s1	inactive	24 µM	23.8 µM	111%	24.3 µM
CCn1nccc1C(=O)Nc1nc2ccccc2n1CCN1CCCCC1	inactive	20.5 µM	17.2 µM	84.7%	23.7 µM
CNC(=O)c1nnsc1S(=O)c1ccc(Cl)cc1 (stereo not given)	inactive	13 µM	13.2 µM	112%	12.7 µM
COc1cc(C(=O)NCC(c2ccco2)N2CCc3ccccc3C2)cc(OC)c1OC (stereo not given)	inactive	22.3 µM	16.7 µM	72.2%	27.8 µM
O=[N+]([O-])c1cc2no[n+]([O-])c2cc1N1CCCCC1	inactive	12 µM	12.2 µM	112%	11.9 µM
CC(C)[C@H](NC(=O)OC(C)(C)C)c1nnc(S(=O)(=O)Cc2c(F)cccc2Cl)o1	inactive	13.3 µM	12.9 µM	111%	13.8 µM
COc1ccc(NC(=S)NNc2ccc([N+](=O)[O-])cc2S(=O)(=O)Nc2ccc(C)cc2C)cc1	inactive	35.1 µM	> 79 µM	106%	35.1 µM
COc1cc(/C=C(\C#N)c2nc3ccccc3o2)ccc1O	inactive	35.5 µM	28.8 µM	73.9%	42.1 µM
O=C1C=CC2C3C(=O)N(c4ccccc4)C(=O)C3C1N2Cc1ccccc1 (stereo not given)	inactive	21.5 µM	19.5 µM	108%	23.5 µM
COc1cccc2sc(N(CCCN(C)C)C(=O)CCS(=O)(=O)c3ccccc3)nc12	inactive	14.7 µM	13.5 µM	111%	15.9 µM
O=C(COC(=O)C1CCN(S(=O)(=O)c2cccs2)CC1)c1cc2ccccc2o1	inactive	16.8 µM	16.8 µM	27.4%	> 79 µM
O=C(COc1ccc(Br)cc1Cl)NC(=S)N1CCc2ccccc21	inactive	17.3 µM	14.8 µM	94.9%	19.7 µM
O=C(C=Cc1ccccn1)c1ccccc1O	inactive	22.4 µM	13.8 µM	108%	31 µM
